# Test results: patent publication US5298491A, “Derivatives of endogenous mediators, their salts, method of preparation, applications and compositions in which they are present” (priority 1990, dated 1994)
# Experiments:
# serotonin receptors = assay: Affinity and selectivity for serotonin receptor sites; type: binding
# 5-HT1A sites [1] = assay: Labelling of rat hippocampus (autoradiography); type: binding; conditions: 0.03 nM
# Procedure: (§1) The protocol for preparing the brain sections is common to all the studies which follow. The animals are decapitated after anaesthesia with chloral hydrate (400 mg/kg of gross weight). The brains are quickly removed from the skull and frozen by immersion in isopentane cooled by liquid nitrogen. 20 μm sections, prepared in a cryostat at -20° C., are mounted on gelatin-coated slides and stored at -20° C.
# (§2) The sections are preincubated for 1 hour at 4° C. in a Krebs solution (NaCl 118 mM; KCl 4.8 mm; CaCl2 1.2 mM; MgCl2 1.2 mM; Tris-HCl 15 mM, pH 7.4) in order to remove the endogenous ligands.
# (§3) The incubations take place for 60 minutes at 20° C. in a Krebs solution containing 10 μM pargyline, 5.7.10^-4 M ascorbic acid, 10 g/l of bovine serum albumin (fraction V, Sigma) and 0.03 nmol/l of the derivative S--CM-[^125 I]--R. The non-specific binding is determined on homothetic sections under the same conditions, but in the presence of 10^-5 M 5-HT.
# (§4) After incubation, the sections are rinsed twice for 1 min in distilled water and dried by a stream of hot air. The sections are affixed to a kilm (Amersham) for one week in the presence of standards ([^125 I] microscale, Amersham). The films are developed for 6 min with Kodak D19, rinsed and fixed with AL4 (Kodak). Quantitative analysis of the autoradiographs is performed with an image analysis system (Segu et al., op. cit.). […]
# [2] = Distribution of labelling in vivo with a gamma camera after intravenous injection; conditions: mice
# Procedure: 2. Study of the distribution of the binding of the derivative S--CM-G[125]TNH2 by visualization in vivo with a gamma camera
# The animals (mice) are anaesthetized and injected intravenously with the derivative S--CM-G[^125 I]TNH2. […] In this latter zone, the labelling is retained for 15 to 20 minutes before slowly disappearing.
# [3] = tested on: other receptors which are not of the 5-HT type (such as β-adrenergic receptors); assay: Binding to receptors not of the 5-HT type
# 5-HT1C sites [4] = assay: Labelling of guinea-pig choroid plexus (autoradiography); type: binding; conditions: 0.03 nM
# Procedure: as §1, §2, §3
# (§5) After incubation, the sections are rinsed twice for 1 min in distilled water and dried by a stream of hot air. The sections are affixed to a kilm (Amersham) for one week in the presence of standards ([^125 I] microscale, Amersham). The films are developed for 6 min with Kodak D19, rinsed and fixed with AL4 (Kodak). Quantitative analysis of the autoradiographs is performed with an image analysis system (Segu et al., op. cit.).
# 5-HT1A sites [5] = assay: Labelling of Ammon's horn in postmortem human brain sections (autoradiography); type: binding; conditions: treated as monkey sections
# Procedure: (§6) The sections are preincubated for 1 h at 4° C. in a Krebs solution (mM: NaCl, 118; KCl, 4.5; CaCl2, 1.2; MgCl2, […]; Tris, 15; pH 7.4) in order to remove the endogenous ligands. They are then incubated at 20° C. for 60 minutes in a solution containing 10^-5 M pargyline, 57 mM ascorbic acid, 10 g/l of bovine serum albumin and 0.02 nM S--CM-G[^125 I]TNH2, alone or in the presence of increasing concentrations of serotonin. Some of the sections are incubated under identical conditions except that the radioactive probe is replaced either with 2 nM [^3 H]5-HT, or with 2 nM [^3 H]5-HT in the presence of 100 nM 8-hydroxy-2-[di-N-propylamino]tetralin (8-OH-DPAT) and 100 nM mesulergin, or with 1 nM [^3 H]8-OH-DPAT. After rinsing 2 x for 1 minute in distilled water, the sections are dried.
# (§7) The slides are affixed to a tritium-sensitive film for 8 days. The film is developed for 6 minutes in D19, rinsed and fixed. The autoradiographs are quantified with a video system for image analysis (Segu et al., 1990).
# (§8) a) Postmortem human brains are stored at -20° C. 10 μm sections are prepared from blocks containing either the locus niger or the Ammon's horn. The sections are treated as indicated in 4. for the monkey brain sections.
# (§9) The locus niger contains virtually exclusively binding sites of the 5-HT1D type, whereas the Ammon's horn is composed predominantly of sites of the 5-HT1A type.
# 5-HT1D sites [6] = assay: Labelling of 5-HT1D structures of guinea-pig brain sections (autoradiography); type: binding
# Procedure: as §1, §2, §3, §5
# In the central nervous system of the guinea-pig, the anatomical structures containing sites of the 5-HT1A type and the pharmacology of these sites are the same as in the rat. By contrast, the pharmacology of the sites contained in the substantia nigra of the guinea-pig is different from that of the sites of the same structure in the rat (Heuring and Peroutka, J. Neurosci., 7, 1987, p. 894-903). These sites are therefore denotedas 5-HT1D.
# 5-HT1D receptors = assay: Labelling of locus niger in postmortem human brain sections (autoradiography); type: binding
# Procedure: as §6, §7, §8, §9
# 5-HT1A sites [7] = assay: Labelling of guinea-pig hippocampus (autoradiography); type: binding; conditions: 0.03 nM
# Procedure: as §1, §2, §3, §4
# 5-HT1C sites [8] = assay: Labelling of rat choroid plexus (autoradiography); type: binding; conditions: 0.03 nM
# Procedure: as §1, §2, §3, §4
# 5-HT1D sites [9] = molecular target: T1, 5-HT1D sites (Macaca mulatta, UniProt F6SFA9); assay: Labelling of substantia nigra in monkey brain sections (autoradiography); type: binding, monkey (Macacca mulatta n.); conditions: for binding to / marker for 5-HT1D sites: conclusion
# T1 construct: The right hemisphere is cut out and frozen by isopentane cooled in liquid nitrogen; from tissue; host or cells: rhesus monkey brain sections (right hemisphere, 10 μm, frozen), substantia nigra
# T1 sequence (F6SFA9 1-390): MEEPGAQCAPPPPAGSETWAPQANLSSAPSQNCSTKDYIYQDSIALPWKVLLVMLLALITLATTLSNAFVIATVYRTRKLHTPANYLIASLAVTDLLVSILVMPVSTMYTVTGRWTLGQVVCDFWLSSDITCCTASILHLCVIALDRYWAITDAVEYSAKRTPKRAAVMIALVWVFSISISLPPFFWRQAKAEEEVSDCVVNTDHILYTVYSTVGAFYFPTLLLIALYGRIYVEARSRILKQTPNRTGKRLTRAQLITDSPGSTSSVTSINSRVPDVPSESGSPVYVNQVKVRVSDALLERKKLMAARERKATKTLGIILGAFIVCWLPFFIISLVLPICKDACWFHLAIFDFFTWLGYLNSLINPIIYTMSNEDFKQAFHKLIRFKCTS
# Procedure: A male monkey (Macacca mulatta n.) weighing 8 kg was sacrificed by means of an overdose of barbiturates and exsanguination. […] The right hemisphere is cut out and frozen by isopentane cooled in liquid nitrogen. The block is stored at -20° C. […] They are stored at -20° C. until required.
# Some of the sections are incubated under identical conditions except that the radioactive probe is replaced either with 2 nM [^3 H]5-HT, or with 2 nM [^3 H]5-HT in the presence of 100 nM 8-hydroxy-2-[di-N-propylamino]tetralin (8-OH-DPAT) and 100 nM mesulergin, or with 1 nM [^3 H]8-OH-DPAT. After rinsing 2 x for 1 minute in distilled water, the sections are dried.
# The slides are affixed to a tritium-sensitive film for 8 days. The film is developed for 6 minutes in D19, rinsed and fixed.
# [10] = Toxicity observed at the injected dose; type: in vivo, mice and guinea-pigs
# Procedure: (§10) 2 mice and 2 guinea-pigs are deeply anaesthetized with chloral hydrate (intraperitoneal injection of 0.12 ml of a 35% solution per 100 g of body weight).
# (§11) The mice and guinea-pigs receive intracardiac injections of 200 μl and 1.5 ml, respectively, of S--CM-G[^125 I]TNH2.
# (§12) After 10 minutes, the animals, still under deep anaesthesia, are decapitated and the brains are frozen and stored as indicated in Example 1.
# rat central receptors = assay: Labelling of rat brain sections with iodinated derivatives (autoradiography); conditions: 0.03 nM iodinated derivative; non-specific binding with 10^-5 M 5-HT
# Procedure: as §1
# [11] = Passage across the blood-brain barrier after intracardiac injection (brain autoradiography); type: in vivo, mice and guinea-pigs; conditions: 10 minutes; for passage across the blood-brain barrier: intracardiac injection, conclusion
# Procedure: as §10, §11, §12
# Sections are prepared and autoradiography is carried out as described in Example 1.
# 5-HT1B sites = 5-HT1B sites (Rattus norvegicus, UniProt P28564); assay: Labelling of 5-HT1B structures of rat brain sections (autoradiography); type: binding
# Chain of 5-HT1B sites (P28564 whole entry): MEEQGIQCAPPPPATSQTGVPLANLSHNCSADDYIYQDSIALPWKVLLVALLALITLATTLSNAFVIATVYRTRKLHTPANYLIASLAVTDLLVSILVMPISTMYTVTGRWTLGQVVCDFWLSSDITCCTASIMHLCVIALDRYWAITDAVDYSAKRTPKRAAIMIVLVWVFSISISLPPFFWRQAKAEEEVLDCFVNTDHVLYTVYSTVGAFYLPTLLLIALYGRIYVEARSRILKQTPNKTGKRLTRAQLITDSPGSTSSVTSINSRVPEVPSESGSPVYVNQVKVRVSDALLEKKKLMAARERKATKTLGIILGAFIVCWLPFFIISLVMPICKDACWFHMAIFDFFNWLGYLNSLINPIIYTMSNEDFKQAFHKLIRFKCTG
# Procedure: as §1, §2, §3, §5
# This last structure is known for containing almost exclusively binding sites of the 5-HT1A type, whereas the others contain sites of the 5-HT1B type (Hoyer et al., Eur. J. Pharmacol., 118, 1985, P. 1-12). In the anterior region, the striatum (ST) is labelled: it contains especially 5-HT1B sites; the choroid plexus (Px), which contains 5-HT1c sites, is not labelled.
structure (smiles),measurement,setting,value
NCCc1c[nH]c2ccc(OCC(=O)NCC(=O)N[C@@H](Cc3ccc(O)c([125I])c3)C(N)=O)cc12 [S--CM-G[^125 I]TNH2],preferential affinity among 5-HT1 sites,serotonin receptors; 5-HT1B and 5-HT1D vs 5-HT1A and 5-HT1C,preferential affinity for the 5-HT1B and 5-HT1D sites compared with the 5-HT1A and 5-HT1C sites
same,ligand labelling of the 5-HT1D sites,serotonin receptors; compared with other ligands,only ligand to label the 5-HT1D sites
same,labelling of the hippocampus,5-HT1A sites [1],no labelling
same,labelling of the hippocampus,5-HT1A sites [1]; listed as S-CM-G[^125 I]TNH2,not labelled
same,labelling of the vascular system 10 minutes after the injection,[2]; 10 minutes,"the labelling decreases in the vascular system, except for the heart and the cerebral vascular system"
same,initial distribution of labelling,[2]; gamma camera,"very quickly observed to diffuse into the heart, the entire vascular system and the liver"
same,labelling of the bladder,[2]; longer term,increases in the longer term
same,labelling of the heart,[2]; longer term,remaining labelled for a fairly long time
same,selectivity vs receptors not of the 5-HT type,[3],high selectivity without binding to other receptors which are not of the 5-HT type
same,labelling of the choroid plexus,5-HT1C sites [4],not labelled
same,labelling of the Ammon's horn,5-HT1A sites [5],weak labelling
same,labelling of the substantia nigra,5-HT1D sites [6]; 0.03 nM,labels the substantia nigra
same,"labelling of St, SD and SN","5-HT1D sites [6]; FIG. 6, 0.03 nM",labelled
same,marker for 5-HT1D sites,5-HT1D sites [6]; conclusion,marker for sites with a high affinity for serotonin of the 1D type
same,labelling of 5-HT1D receptors of the human brain in vitro,5-HT1D receptors; conclusion,labels the 5-HT1D receptors of the human brain in vitro
same,labelling of the locus niger,"5-HT1D receptors; postmortem, treated as monkey sections",strong labelling
same,labelling of the hippocampus,5-HT1A sites [7]; listed as S--CM-G[^125I]TNH2,not the hippocampus
same,labelling of the hippocampus,5-HT1A sites [7]; listed as S-CM-G[^125 I]TNH2,not labelled
same,labelling of the choroid plexus,5-HT1C sites [8],not labelled
same,labelling of the substantia nigra,5-HT1D sites [9]; 0.02 nM S-CM-G[125I]TNH2,virtually exclusive labelling of the substantia nigra
same,labelling of the substantia nigra,"5-HT1D sites [9]; 0.02 nM S-CM-G[125I]TNH2, listed as [^125 I]S-CM-GTNH2",exclusive labelling of the substantia nigra
same,binding to / marker for 5-HT1D sites,5-HT1D sites [9],marker for 5-HT1D receptors
same,binding to / marker for 5-HT1D sites,5-HT1D sites [9]; listed as S--CM-G[^125 I9 TNH2,specific for the 5-HT1D sites
same,binding to / marker for 5-HT1D sites,5-HT1D sites [9]; listed as S--CM-G[^125 I ]TNH2,binds to the 5-HT1D sites
same,toxicity,[10],No toxicity was observed
same,labelling / specific retention on rat brain sections,rat central receptors,retained specifically on rat brain sections
same,labelling of brain sections after in vivo injection,"[11]; intracardiac injection (mice 200 μl, guinea-pigs 1.5 ml)",no labelling
same,passage across the blood-brain barrier,[11],does not cross the blood-brain barrier
same,passage across the blood-brain barrier,[11]; listed as S--CM-G[125]TNH2,does not pass through the blood-brain barrier
same,"labelling of St, SD and SN","5-HT1B sites; FIG. 5, 0.03 nM",labelled
same,labelling of the striatum,"5-HT1B sites; anterior region, 0.03 nM",labelled
same,marker specificity for 5-HT1B sites,5-HT1B sites; conclusion,specific marker for binding sites with a high affinity for serotonin of the 1B type
same,labelling of the substantia nigra and the dorsal subiculum,"5-HT1B sites; mesencephalic region, 0.03 nM",intense labelling
